Test results published in patent publication US9228991B2, “Methods and kits for detection of drugs” (RAMOT AT TEL-AVIV UNIVERSITY LTD., priority 2010, dated 2016).
Where two headings read alike, the source gives them in different places.

Columns and labels:
[1] = cited from earlier work
[2] = cited from earlier work; remark: listed apart in the source
[3] = GHB solubility / precipitation in anti-solvents

Row | Structure (SMILES) | Physical Effect ([1]; ketamine dose 10-80 mg (low), <0.01-0.08% in drink) | Physical Effect ([1]; ketamine dose 130-250 mg (high), 0.13-0.25% in drink) | Physical Effect ([1]; ketamine dose >250 mg (mega), >0.25% in drink) | Physical Effect ([2]; GHB dose 4-8 (very high), 4-8% in drink) | dose at which a dangerous overdose can occur ([2]; depending on body weight and metabolism) | heavy dose ([2]; in vivo) | solubility in anti-solvent ([3]; acetonitrile) | solubility in anti-solvent ([3]; pure ethanol)
1 | CNC1(c2ccccc2Cl)CCCCC1=O (centres unmarked) [ketamine] | Mild euphoria | K-hole, near comatose state | Powerful deep sleep. |  |  |  |  | 
2 | O=C(O)CCCO [GHB, gamma-hydroxybutyrate] |  |  |  | Powerful deep sleep. | two | approximately 2.5 grams | mostly insoluble | mostly insoluble
